EPA's ToxValDB 9.5
Several values for one entry are separate records, joined by “and”; a condition that tells them apart may be missing. Equal values may be shown once.

Tests used:
Canidae = details: chronic, oral, diet, Dog Other
Mus musculus [1] = details: oral, gavage
Rattus norvegicus [2] = details: oral
Rattus norvegicus [3] = details: short-term; duration: 28 days; oral; gavage; M/F; Clinical Observation: Tremor
Rattus norvegicus [4] = details: for LC50 / LD50: acute
Oryctolagus sp. = details: dermal; for LD50: acute
Mus musculus [5] = tested on: Mus musculus
[6] = duration: 1 years, M/F, Liver effects + organ weight changes
[7] = short-term, duration: 28 days, F, C57BL/6, Liver: Acyl-CoA Oxidase Activity, Liver + Multi-organ: IgM Serum Titer + Spleen: Spleen Weight, Absolute + Spleen: Spleen Weight, Relative
[8] = short-term, duration: 28 days, F, C57BL/6, Liver: Liver Weight, Absolute + Liver: Liver Weight, Relative
[9] = short-term, duration: 28 days, M, C57BL/6, Liver: Acyl-CoA Oxidase Activity, Liver + Liver: Liver Weight, Absolute + Liver: Liver Weight, Relative
[10] = short-term, duration: 28 days, M, C57BL/6, Spleen: CD4-/CD8- Cell Count + Spleen: CD4+/CD8+ Cell Count + Spleen: CD8+ Cell Count
[11] = Hershberger, duration: 7 days, gavage, Sprague-Dawley, active + Antiandrogenic + anti-androgenic + no AST effects in pairwise comparison but increasing trend for LABC and DL prostate / …
[12] = duration: 1 years, M/F, tremors
[13] = reproduction developmental, duration: 4 weeks, Inhalation, F, CD
[14] = reproduction developmental, duration: 4 weeks, Inhalation, M, CD
[15] = reproduction developmental, duration: 10 days, oral, gavage, Crl:CD(SD)
[16] = duration: 1 years, M/F, thyroid toxicity
[17] = subchronic, duration: 30 days, F, C57BL/6, Cardiovascular: Heart: Heart Weight, Relative + Hepatic: Liver: Liver Weight, Relative + Immune: Multi-Organ: Immunoglobulin M (IgM), Serum…
[18] = subchronic, duration: 30 days, M, C57BL/6, Cardiovascular: Heart: Heart Weight, Relative + Hepatic: Liver: Liver Weight, Relative + Immune: Multi-Organ: Immunoglobulin M (IgM), Serum…
[19] = subchronic, duration: 30 days, M, C57BL/6, Hepatic: Liver: Liver Weight, Relative
[20] = duration: 2 years, M/F, liver toxicity
[21] = duration: 2 years, M/F, elevated alkaline phosphatase + Increase in thyroid/body weight ratio + slight increase in liver weights
[22] = duration: 1 years, M/F, liver cell enlargement
[23] = M/F, reduced body weight gain, skeletal myopathy, slight anemia, bone marrow hyperplasia, increased serum sgot, sgpt, cpk
[24] = duration: 2 years, M/F, cholinesterase inhibition

## Clc1ccccc1-c1nnc(-c2ccccc2Cl)nn1 [Clofentezine]
Canidae; [6]
  LEL: 25 mg/kg-day
  NOEL: 1.25 mg/kg-day

## O=C(O)C(F)(OC(F)(F)C(F)(F)C(F)(F)F)C(F)(F)F (configuration not stated) [Perfluoro-2-methyl-3-oxahexanoic acid]
Mus musculus [1]; [7]
  LEL: 100 mg/kg-day
  NEL: 10 mg/kg-day
Mus musculus [1]; [8]
  LEL: 10 mg/kg-day
  NEL: 1 mg/kg-day
Mus musculus [1]; short-term, duration: 28 days, F, C57BL/6, Spleen: B Cell Count + Spleen: CD4-/CD8- Cell Count + Spleen: CD4+ Cell Count + Spleen: CD4+/CD8+ Cell Count + Spleen: CD8+ Cell Count + …
  NEL: 100 mg/kg-day
Mus musculus [1]; [9]
  LEL: 10 mg/kg-day
  NEL: 1 mg/kg-day
Mus musculus [1]; short-term, duration: 28 days, M, C57BL/6, Multi-organ: IgM Serum Titer + Spleen: B Cell Count + Spleen: CD4+ Cell Count + Spleen: Spleen Weight, Absolute + Spleen: Spleen Weight, …
  NEL: 100 mg/kg-day
Mus musculus [1]; [10]
  LEL: 100 mg/kg-day
  NEL: 10 mg/kg-day

## Cc1c(COC(=O)[C@@H]2[C@H](/C=C(\Cl)C(F)(F)F)C2(C)C)cccc1-c1ccccc1 [Bifenthrin]
Rattus norvegicus [2]; [11]
  LOEL: 13.5 mg/kg-day
  NOEL: 10 mg/kg-day
Rattus norvegicus [2]; Hershberger, duration: 10 days, gavage, Sprague-Dawley, inactive + Negative + Negative + neither + negative
  NOEL: 10 mg/kg-day
Rattus norvegicus [2]; uterotrophic, duration: 3 days, Active
  LEL: 13.2 mg/kg-day
Canidae; [12]
  LEL: 3 mg/kg-day
  NOEL: 1.5 mg/kg-day
Rattus norvegicus [3]
  NOEL: 50 ppm

## N#Cc1cccc(C#N)c1 [1,3-Benzenedicarbonitrile]
Rattus norvegicus [4]; Inhalation, Sprague-Dawley
  LC50: > 8970 mg/m3
Rattus norvegicus [4]; oral, gavage
  LD50: > 5010 mg/kg
Rattus norvegicus [4]; chronic, duration: 99 days, oral, diet, F, Charles River Crl:CD BR VAF/PLUS
  NOAEL: 5 mg/kg-day
Rattus norvegicus [4]; chronic, duration: 99 days, oral, diet, M, Charles River Crl:CD BR VAF/PLUS
  NOAEL: 1 mg/kg-day
Rattus norvegicus [4]; reproduction developmental, duration: 122 days, oral, diet, F
  NOAEL: 25 mg/kg-day
Rattus norvegicus [4]; short-term, duration: 14 days, Inhalation, Sprague-Dawley
  NOAEL: 190 mg/m3
Oryctolagus sp.; occlusive
  LD50: > 2000 mg/kg
Oryctolagus sp.; short-term, duration: 3 weeks, non-occlusive, New Zealand
  NOAEL: 500 mg/kg-day
Mus musculus [5]; chronic, duration: 91 days, oral, diet, CD1
  NOAEL: 20 mg/kg-day

## C1CN(SSN2CCOCC2)CCO1 [4,4'-Dithiodimorpholine]
Rattus norvegicus [4]; oral, gavage, Sprague-Dawley
  LD50: 5600 mg/kg
Rattus norvegicus [4]; [13]
  LOAEL: 29 mg/m3
  NOAEL: 9.9 mg/m3
Rattus norvegicus [4]; [14]
  LOAEL: 9.9 mg/m3
  NOAEL: 1.1 mg/m3
Rattus norvegicus [4]; [15]
  LOAEL: 500 mg/kg-day
  NOAEL: 100 mg/kg-day
Oryctolagus sp.; occlusive, New Zealand
  LD50: > 5010 mg/kg
Mus musculus [5]; acute, inhalation
  LC50: 1620 mg/m3

## CC(=O)O.CCCCCCCCCCCCN=C(N)N [Dodecylguanidine acetate]
Canidae; [16]
  LEL: 5 mg/kg-day
  NOEL: 1.25 mg/kg-day

## Nc1c(Cl)c(Cl)nc(C(=O)O)c1Cl [Picloram]
Canidae; duration: 6 months, M/F, increased liver weight
  NOEL: 7 mg/kg-day
Canidae; duration: 6 months, M, increased liver weight
  LEL: 35 mg/kg-day

## O=C(O)C(F)(F)C(F)(F)C(F)(F)OC(F)(F)F [Perfluoro(4-methoxybutanoic acid)]
Mus musculus [1]; [17]
  LOAEL: 50 mg/kg-day
Mus musculus [1]; [18]
  LOAEL: 50 mg/kg-day
  NOAEL: 5 mg/kg-day
Mus musculus [1]; subchronic, duration: 30 days, M, C57BL/6, Cardiovascular: Heart: Heart Weight, Relative + Immune: Multi-Organ: Immunoglobulin M (IgM), Serum + Immune: Multi-Organ: Natural Killer (NK…
  NOAEL: 50 mg/kg-day
Mus musculus [1]; [19]
  LOAEL: 50 mg/kg-day
  NOAEL: 5 mg/kg-day

## O=C(O)C(F)(F)C(F)(F)OC(F)(F)F [Perfluoro-3-methoxypropanoic acid]
Mus musculus [1]; [17]
  NOAEL: 50 mg/kg-day
Mus musculus [1]; [18]
  NOAEL: 50 mg/kg-day

## COc1nn(CSP(=S)(OC)OC)c(=O)s1 [Methidathion]
Canidae; [20]
  LEL: 0.4 mg/kg-day
  NOEL: 0.1 mg/kg-day

## Cc1[nH]c(=O)n(C(C)(C)C)c(=O)c1Cl [Terbacil]
Canidae; [21]
  LEL: 6.25 mg/kg-day
  NOEL: 1.25 mg/kg-day

## O=C(O)CC(F)(F)C(F)(F)C(F)(F)C(F)(F)C(F)(F)C(F)(F)F [2-(Perfluorohexyl)ethanoic acid]
Mus musculus [1]; short-term, duration: 28 days, M, CD1, Liver: Alanine Aminotransferase (ALT) + Liver: Albumin (A) + Liver: Alkaline Phosphatase (ALP) + Liver: Aspartate Aminotransferase (AST) + …
  NOAEL: 5 mg/kg-day
Mus musculus [1]; short-term, duration: 28 days, M, CD1, Liver: Total Cholesterol (CHOL)
  LOAEL: 5 mg/kg-day

## C[Si](Cn1cncn1)(c1ccc(F)cc1)c1ccc(F)cc1 [Flusilazole]
Canidae; [22]
  LEL: 0.7 mg/kg-day
  NOEL: 0.2 mg/kg-day

## Oc1cc(Cl)ccc1Cl [2,5-Dichlorophenol]
Rattus norvegicus [4]; inhalation, Spartan
  LC50: > 185000 mg/m3
Rattus norvegicus [4]; oral, gavage, Wistar
  LD50: 2480 mg/kg
Rattus norvegicus [4]; reproduction developmental, duration: 4 weeks, inhalation, Sprague-Dawley
  LOAEL: 0.1 mg/L
Oryctolagus sp.; occlusive, New Zealand
  LD50: > 8000 mg/kg
Oryctolagus sp.; reproduction developmental, duration: 21 days, non-occlusive, New Zealand
  LOAEL: 1 mg/kg-day
Mus musculus [5]; acute, oral, gavage, CD1
  LD50: ≥ 946 mg/kg and ≤ 1600 mg/kg

## [S-]c1nc2ccccc2s1.[S-]c1nc2ccccc2s1.[Zn+2] [Zinc 2-mercaptobenzothiazolate]
Rattus norvegicus [4]; oral, Sprague-Dawley
  LD50: 5500 mg/kg
Rattus norvegicus [4]; oral, gavage, Sprague-Dawley
  LD50: 7500 mg/kg
Oryctolagus sp.; New Zealand
  LD50: > 2000 mg/kg
Oryctolagus sp.; occlusive, New Zealand
  LD50: > 7940 mg/kg
Mus musculus [5]; reproduction developmental, duration: 18 months, oral
  NOAEL: 1000 mg/kg-day

## CC(C)C1(C)N=C(c2nc3ccccc3cc2C(=O)O)NC1=O (configuration not stated) [Imazaquin]
Canidae; [23]
  LEL: 125 mg/kg-day
  NOEL: 25 mg/kg-day

## CCOP(=O)(NC(C)C)Oc1ccc(SC)c(C)c1 (configuration not stated) [Fenamiphos]
Canidae; [24]
  LEL: 0.05 mg/kg-day
  NOEL: 0.025 mg/kg-day
